Columns and labels:
Assay in all cases: Lung cancer cell line panel screened for sensitivity to BPTES, 72 hr proliferation assay
Format in all cases: cell-based
NCI-H460 = test system: NCI-H460
Text: (§1) Of these, 44 of the cell lines have been classified as non-small cell lung cancer (NSCLC). […] Four of the top 25 transcriptional/cellular pathways were related to the epithelial-mesenchymal transition (EMT) (ranks 1, 15, 23, 25 of FIG. 2). […] Low E-cadherin/high vimentin are well-defined markers of cells that have a mesenchymal phenotype as characterized for example, in any one of the following references: (Yauch et al., (2005) Cin Cancer Res 11:24; Savagner et al., (2010) Ann Oncol. 21(suppl 7): vii89; Thiery et al., (2002) Nature Reviews Cancer June vol 2:442).

NCI-H1563 = test system: NCI-H1563
Text: as §1

NCI-H1975 = test system: NCI-H1975
Text: as §1

NCI-H446 = test system: NCI-H446
Text: as §1

NCI-H2126 = test system: NCI-H2126
Text: as §1

CALU-6 = CALU-6 cell line
Text: as §1

NCI-H1437 = test system: NCI-H1437
Text: as §1

NCI-H1373 = test system: NCI-H1373
Text: as §1

NCI-H2170 = test system: NCI-H2170
Text: as §1

NCI-H1993 = test system: NCI-H1993
Text: as §1

NCI-H1838 = test system: NCI-H1838
Text: as §1

SW900 = test system: SW900
Text: as §1

NCI-H1770 = test system: NCI-H1770
Text: as §1

NCI-H1092 = test system: NCI-H1092
Text: as §1

NCI-H1734 = test system: NCI-H1734
Text: as §1

NCI-H2122 = test system: NCI-H2122
Text: as §1

NCI-H1573 = test system: NCI-H1573
Text: as §1

NCI-H1694 = test system: NCI-H1694
Text: as §1

NCI-H2107 = test system: NCI-H2107
Text: as §1

A427 = test system: A427
Text: as §1

NCI-H2009 = test system: NCI-H2009
Text: as §1

NCI-H23 = test system: NCI-H23
Text: as §1

NCI-H358 = test system: NCI-H358
Text: as §1

NCI-H1355 = test system: NCI-H1355
Text: as §1

NCI-H1650 = test system: NCI-H1650
Text: as §1

DMS-53 = DMS-53 cell line
Text: as §1

HCC15 = test system: HCC15
Text: as §1

NCI-H1618 = test system: NCI-H1618
Text: as §1

NCI-H2171 = test system: NCI-H2171
Text: as §1

NCI-H1666 = test system: NCI-H1666
Text: as §1

NCI-H661 = test system: NCI-H661
Text: as §1

NCI-H1299 = test system: NCI-H1299
Text: as §1

NCI-H1155 = test system: NCI-H1155
Text: as §1

COR-L23 = test system: COR-L23
Text: as §1

A549 = test system: A549
Text: as §1

NCI-H1581 = test system: NCI-H1581
Text: as §1

O=C(Cc1ccccc1)Nc1nnc(CCSCCc2nnc(NC(=O)Cc3ccccc3)s2)s1 [BPTES]
Max Inh @ 10 uM (%) (NCI-H460; NCI-H460, 10 uM): 18% | Mu/max @10 uM (NCI-H460; NCI-H460, 10 uM): 0.92 | μ/μmax @10 uM (NCI-H460; NCI-H460, 10 uM): 0.92 | μ/μmax (NCI-H460; NCI-H460 cell line): 0.92 | Max Inh @ 10 uM (%) (NCI-H1563; NCI-H1563, 10 uM): 8% | Mu/max @10 uM (NCI-H1563; NCI-H1563, 10 uM): 0.92 | μ/μmax @10 uM (NCI-H1563; NCI-H1563, 10 uM): 0.92 | μ/μmax (NCI-H1563; NCI-H1563 cell line): 0.92 | Max Inh @ 10 uM (%) (NCI-H1975; NCI-H1975, 10 uM): 18% | Mu/max @10 uM (NCI-H1975; NCI-H1975, 10 uM): 0.75 | μ/μmax @10 uM (NCI-H1975; NCI-H1975, 10 uM): 0.75 | μ/μmax (NCI-H1975; NCI-H1975 cell line): 0.75 | μ/μmax (NCI-H446): 0.84 | μ/μmax (NCI-H2126): 1.00 | μ/μmax (CALU-6): 0.82 | Max Inh @ 10 uM (%) (NCI-H1437; NCI-H1437, 10 uM): 27% | Mu/max @10 uM (NCI-H1437; NCI-H1437, 10 uM): 0.81 | μ/μmax @10 uM (NCI-H1437; NCI-H1437, 10 uM): 0.81 | μ/μmax (NCI-H1437; NCI-H1437 cell line): 0.81 | μ/μmax (NCI-H1373): 0.79 | μ/μmax (NCI-H2170): 0.82 | μ/μmax (NCI-H1993): 0.89 | μ/μmax (NCI-H1838): 0.63 | μ/μmax (SW900): 0.70 | μ/μmax (NCI-H1770): 0.56 | μ/μmax (NCI-H1092): 0.77 | μ/μmax (NCI-H1734): −0.12 | Max Inh @ 10 uM (%) (NCI-H2122; NCI-H2122, 10 uM): 58% | Mu/max @10 uM (NCI-H2122; NCI-H2122, 10 uM): 0.56 | μ/μmax @10 uM (NCI-H2122; NCI-H2122, 10 uM): 0.56 | μ/μmax (NCI-H2122; NCI-H2122 cell line): 0.56 | μ/μmax (NCI-H1573): 0.92 | μ/μmax (NCI-H1694): 1.00 | μ/μmax (NCI-H2107): 0.79 | Max Inh @ 10 uM (%) (A427; A427, 10 uM): 86% | Mu/max @10 uM (A427; A427, 10 uM): −0.49 | μ/μmax @10 uM (A427; A427, 10 uM): −0.49 | μ/μmax (A427; A427 cell line): −0.49 | μ/μmax (NCI-H2009): 0.96 | Max Inh @ 10 uM (%) (NCI-H23; NCI-H23, 10 uM): 45% | Mu/max @10 uM (NCI-H23; NCI-H23, 10 uM): 0.60 | μ/μmax @10 uM (NCI-H23; NCI-H23, 10 uM): 0.60 | μ/μmax (NCI-H23; NCI-H23 cell line): 0.60 | sensitivity to BPTES (NCI-H358; NCI-H358): relatively BPTES insensitive | Max Inh @ 10 uM (%) (NCI-H358; NCI-H358, 10 uM): 27% | Mu/max @10 uM (NCI-H358; NCI-H358, 10 uM): 0.66 | μ/μmax @10 uM (NCI-H358; NCI-H358, 10 uM): 0.66 | μ/μmax (NCI-H358; NCI-H358 cell line): 0.66 | μ/μmax (NCI-H1355): 0.78 | μ/μmax (NCI-H1650): 0.26 | μ/μmax (DMS-53): 0.93 | Max Inh @ 10 uM (%) (HCC15; HCC15, 10 uM): 40% | Mu/max @10 uM (HCC15; HCC15, 10 uM): 0.64 | μ/μmax @10 uM (HCC15; HCC15, 10 uM): 0.64 | μ/μmax (HCC15; HCC15 cell line): 0.64 | μ/μmax (NCI-H1618): 0.53 | μ/μmax (NCI-H2171): 0.88 | μ/μmax (NCI-H1666): 1.00 | Max Inh @ 10 uM (%) (NCI-H661; NCI-H661, 10 uM): 73% | Mu/max @10 uM (NCI-H661; NCI-H661, 10 uM): 0.43 | μ/μmax @10 uM (NCI-H661; NCI-H661, 10 uM): 0.43 | μ/μmax (NCI-H661; NCI-H661 cell line): 0.43 | μ/μmax (NCI-H1299): 0.49 | μ/μmax (NCI-H1155): 0.93 | μ/μmax (COR-L23): 0.96 | Max Inh @ 10 uM (%) (A549; A549, 10 uM): 73% | Mu/max @10 uM (A549; A549, 10 uM): 0.53 | μ/μmax @10 uM (A549; A549, 10 uM): 0.53 | μ/μmax (A549; A549 cell line): 0.53 | μ/μmax (NCI-H1581): 0.51
